# According to the supplement of paper PMC10307832:
# Experiments:
# Assay in all cases: relative viability (nuclei count vs DMSO), 5 days (fraction); higher = more cells survive
# [1] = test system: 201T
# In short: (§1)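 Nuclei were stained with Hoechst during a one-step fixation (final 0.05% Triton X-100, 1% formaldehyde, 1 ug/ml Hoechst) carried out 5 days after dosing, then counted on 4× images. The cells, lung cancer lines in 1536-well plates, had been dosed by pin tool the day after seeding with one drug alone or a fixed anchor-drug dose plus five library-drug doses (not always all listed) in √10 steps. Relative viability is the nuclei count in treated wells divided by that in vehicle wells, and each value is the median of duplicate plates.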
# [2] = test system: CAL-12T
# In short: as §1
# [3] = test system: COR-L23
# In short: as §1
# [4] = test system: ChaGo-K-1
# In short: as §1
# [5] = test system: HOP-62
# In short: as §1
# [6] = test system: LC-2-ad
# In short: as §1
# [7] = test system: NCI-H1355
# In short: as §1
# [8] = test system: NCI-H1395
# In short: as §1
# [9] = test system: NCI-H1651
# In short: as §1
# [10] = test system: NCI-H1666
# In short: as §1
# [11] = test system: NCI-H1734
# In short: as §1
# [12] = test system: NCI-H1944
# In short: as §1
# [13] = test system: NCI-H1993
# In short: as §1
# [14] = test system: NCI-H2085
# In short: as §1
# [15] = test system: NCI-H2170
# In short: as §1
# [16] = test system: NCI-H2228
# In short: as §1
# [17] = test system: NCI-H322M
# In short: as §1
# [18] = test system: NCI-H520
# In short: as §1
# [19] = test system: NCI-H838
# In short: as §1
# [20] = test system: RERF-LC-KJ
# In short: as §1
smiles,measurement,setting,value
COCC1(CO)C(=O)C2CCN1CC2 (stereo unspecified) [PRIMA-1MET] + CC1(C)CCC(c2ccc(Cl)cc2)=C(CN2CCN(c3ccc(C(=O)NS(=O)(=O)c4ccc(N[C@H](CCN5CCOCC5)CSc5ccccc5)c(S(=O)(=O)C(F)(F)F)c4)cc3)CC2)C1 [Navitoclax] (partner 0.5 µM),relative viability,[1]; first compound 0.2 µM,1.31
same,relative viability,[1]; first compound 0.6325 µM,1.17
same,relative viability,[1]; first compound 2 µM,1.13
same,relative viability,[1]; first compound 6.325 µM,1.27
same,relative viability,[1]; first compound 20 µM,1.2
same,relative viability,[2]; first compound 0.2 µM,1.3
same,relative viability,[2]; first compound 0.6325 µM,1.32
same,relative viability,[2]; first compound 2 µM,1.15
same,relative viability,[2]; first compound 6.325 µM,1.3
same,relative viability,[2]; first compound 20 µM,0.583
same,relative viability,[3]; first compound 0.2 µM,1.1
same,relative viability,[3]; first compound 0.6325 µM,0.93
same,relative viability,[3]; first compound 2 µM,1.06
same,relative viability,[3]; first compound 6.325 µM,1.03
same,relative viability,[3]; first compound 20 µM,0.023
same,relative viability,[4]; first compound 0.2 µM,1.08
same,relative viability,[4]; first compound 0.6325 µM,0.667
same,relative viability,[4]; first compound 2 µM,1.11
same,relative viability,[4]; first compound 6.325 µM,1.11
same,relative viability,[4]; first compound 20 µM,0.404
same,relative viability,[5]; first compound 0.2 µM,1.44
same,relative viability,[5]; first compound 0.6325 µM,1.01
same,relative viability,[5]; first compound 2 µM,0.94
same,relative viability,[5]; first compound 6.325 µM,0.962
same,relative viability,[5]; first compound 20 µM,0.839
same,relative viability,[6]; first compound 0.2 µM,0.483
same,relative viability,[6]; first compound 0.6325 µM,0.375
same,relative viability,[6]; first compound 2 µM,0.511
same,relative viability,[6]; first compound 6.325 µM,0.39
same,relative viability,[6]; first compound 20 µM,0.217
same,relative viability,[7]; first compound 0.2 µM,1.08
same,relative viability,[7]; first compound 0.6325 µM,0.791
same,relative viability,[7]; first compound 2 µM,0.804
same,relative viability,[7]; first compound 6.325 µM,0.947
same,relative viability,[7]; first compound 20 µM,0.944
same,relative viability,[8]; first compound 0.2 µM,1.17
same,relative viability,[8]; first compound 0.6325 µM,1.49
same,relative viability,[8]; first compound 2 µM,1.02
same,relative viability,[8]; first compound 6.325 µM,1.24
same,relative viability,[8]; first compound 20 µM,0.44
same,relative viability,[9]; first compound 0.2 µM,1.15
same,relative viability,[9]; first compound 0.6325 µM,1
same,relative viability,[9]; first compound 2 µM,0.918
same,relative viability,[9]; first compound 6.325 µM,1.19
same,relative viability,[9]; first compound 20 µM,0.974
same,relative viability,[10]; first compound 0.2 µM,1.01
same,relative viability,[10]; first compound 0.6325 µM,0.858
same,relative viability,[10]; first compound 2 µM,1.03
same,relative viability,[10]; first compound 6.325 µM,0.895
same,relative viability,[10]; first compound 20 µM,0.249
same,relative viability,[11]; first compound 0.2 µM,0.943
same,relative viability,[11]; first compound 0.6325 µM,0.772
same,relative viability,[11]; first compound 2 µM,0.744
same,relative viability,[11]; first compound 6.325 µM,0.922
same,relative viability,[11]; first compound 20 µM,0.221
same,relative viability,[12]; first compound 0.2 µM,1.18
same,relative viability,[12]; first compound 0.6325 µM,0.892
same,relative viability,[12]; first compound 6.325 µM,1.02
same,relative viability,[12]; first compound 20 µM,1.08
same,relative viability,[13]; first compound 0.2 µM,0.997
same,relative viability,[13]; first compound 0.6325 µM,0.772
same,relative viability,[13]; first compound 2 µM,0.813
same,relative viability,[13]; first compound 6.325 µM,0.889
same,relative viability,[13]; first compound 20 µM,1.02
same,relative viability,[14]; first compound 0.2 µM,1.2
same,relative viability,[14]; first compound 0.6325 µM,1.04
same,relative viability,[14]; first compound 2 µM,1.09
same,relative viability,[14]; first compound 6.325 µM,0.734
same,relative viability,[14]; first compound 20 µM,0.364
same,relative viability,[15]; first compound 0.2 µM,0.621
same,relative viability,[15]; first compound 0.6325 µM,0.543
same,relative viability,[15]; first compound 2 µM,0.456
same,relative viability,[15]; first compound 6.325 µM,0.622
same,relative viability,[15]; first compound 20 µM,0.554
same,relative viability,[16]; first compound 0.2 µM,0.9
same,relative viability,[16]; first compound 0.6325 µM,0.839
same,relative viability,[16]; first compound 2 µM,1.09
same,relative viability,[16]; first compound 6.325 µM,0.62
same,relative viability,[16]; first compound 20 µM,0.0661
same,relative viability,[17]; first compound 0.2 µM,1.51
same,relative viability,[17]; first compound 6.325 µM,1.4
same,relative viability,[17]; first compound 20 µM,1.13
same,relative viability,[18]; first compound 0.2 µM,1.25
same,relative viability,[18]; first compound 0.6325 µM,1.06
same,relative viability,[18]; first compound 6.325 µM,1.17
same,relative viability,[18]; first compound 20 µM,0.131
same,relative viability,[19]; first compound 0.2 µM,1.38
same,relative viability,[19]; first compound 0.6325 µM,1.12
same,relative viability,[19]; first compound 2 µM,1.23
same,relative viability,[19]; first compound 6.325 µM,1.23
same,relative viability,[19]; first compound 20 µM,1.15
same,relative viability,[20]; first compound 0.2 µM,1.33
same,relative viability,[20]; first compound 0.6325 µM,0.929
same,relative viability,[20]; first compound 2 µM,0.833
same,relative viability,[20]; first compound 6.325 µM,0.837
same,relative viability,[20]; first compound 20 µM,0.814
